In patent publication US9808448B2, “Pharmaceutical compounds and use of same in cancer and tauopathies” (THE REGENTS OF THE UNIVERSITY OF MICHIGAN, priority 2013, dated 2017):
“Also recorded” adds a separate entry of the source. Read-outs that look alike come from different tables or passages of the source.

Tests used:
[1] = target: prokaryotic Hsp70 (DnaK) binding to denatured luciferase (Escherichia coli, UniProt P0A6Y8); assay: Luciferase binding assay; assay type: biochemical; settings: 50 μM
Procedure: Next, the effect of chaperone functions by binding of YM-08 to Hsp70 was investigated. […] This profile is shared with other allosteric Hsp70 inhibitors. As another test of chaperone function, the effects of the compounds on the binding of Hsp70 to a misfolded protein were measured. In previous work, MKT-077 stabilized the interaction between prokaryotic Hsp70 (DnaK) and denatured luciferase. Briefly, this assay involves immobilizing unfolded luciferase in microtiter plates and measuring binding to DnaK. […] To explore whether YM-08 might also enhance binding of Hsp70 to a more physiologically relevant substrate, binding of tau to immobilized human Hsc70 was measured.
Binding of prokaryotic Hsp70 (DnaK) to denatured luciferase was measured as previously described, in e.g., Miyata, et al., J. Biomol. Screen, 15:1211-1219 (2010). Briefly, firefly luciferase (0.2 mg/mL) was proteolyzed with trypsin and immobilized in 96-well microtiter plates. After washing, the binding of luciferase to DnaK (500 nM) was measured using an anti-DnaK antibody and HRP secondary antibody. A similar strategy was used to monitor binding of human Hsc70 to tau, as previously described in Thompson, et al., ACS Chem. Biol., 7:1677-1686 (2012).

human Hsc70 (HSPA8) = target: T1, human Hsc70 (HSPA8) (Homo sapiens, UniProt P11142); assay: ELISA competitive binding assay (biotinylated MKT-077 displacement)
T1 construct: made in house
Procedure: Binding of MKT-077 analogs to immobilized Hsp70 was evaluated using a competitive ELISA. In this established assay, a biotinylated version of MKT-077 is bound to immobilized human Hsc70 (HSPA8) and potential competitors are tested for their ability to block the interaction.
A sample of Hsc70 (50 μL; 0.06 mg/mL) was immobilized in clear flat-bottom 96-well plate in MES buffer (50 mM 2-(N-morpholino)ethanesulfonic acid, pH 5.2) at 37° C. overnight. After discarding the excess protein solution, each well was washed three times with 150 μL TBS-T buffer (25 mM Tris, 140 mM NaCl, 2.7 mM KCl, 0.01% Tween-20, pH 7.4). Then, 1 μL of compound (1% DMSO) was diluted into 24 μL of binding buffer (100 mM Tris, 20 mM KCl, 6 mM MgCl2, 0.01% Triton-X100) and incubated at room temperature for 30 min. Biotin labeled MKT-077 (final concentration 1 μM; 25 μL) was subsequently added into each well and the mixture was incubated at room temperature for another 3 hrs. The wells were washed with 150 μL TBS-T buffer three times prior to blocking with 100 μL 3% bovine serum albumin (BSA) in TBS-T buffer for 5 min at room temperature. After the removal of the BSA solution, 50 μL of HRP-streptavidin (Pierce Biotechnology, 1:50000 TBS-T dilution) solution was added and the plates were incubated at room temperature for 1 hr. The HRP-streptavidin solution was removed and wells were washed three times with 150 μL TBS-T. […] substrate (Cell Signaling Technology 100 μL) was added into each well and incubated at room temperature until a visible blue color was shown in wells (about 20 min). 1 M HCl stop solution was then added into each well to yield a yellow solution and the absorbance at 450 nm was recorded on SpectraMax M5 (Molecular Devices).

MCF7 cells = assay: Combination therapy Hsp70 and Hsp90, MCF7 growth; assay type: cell-based; settings: with 1 nM rapamycin or 1 nM 17-AAG
Procedure: The cells were then treated with the Hsp70 inhibitor JG-83 or JG-84 alone or in combination with the Hsp90 inhibitor 1 nM rapamycin or 1 nM 17-AAG.

MCF-7 = assay: Cancer activity screen (MTT cell survival), MCF-7; assay type: cell-based; settings: for anti-cancer activity: especially in MCF7 cells; for IC50: Homo sapiens, MCF7
[2] = system: human 4R0N tau in HeLaC3 cells; assay: Tau levels in HeLaC3 cells by Western blot; assay type: cell-based
Procedure: To determine whether YM-08 might also accelerated tau degradation, HeLaC3 cells, which stably over-express human 4R0N tau, were treated with compound. After 24 hours, the levels of phosphorylated (p396/404) tau and total tau were measured by Western blot. […] This cellular activity is not as dramatic as that of MKT-077, which reduced tau levels by >80% at 30 μM (FIG. 4D); however, reducing tau by only about 50% is predicted to provide benefits in some AD models.

MCF-10A = assay: Cancer activity screen (MTT cell survival), MCF-10A; assay type: cell-based; settings: Homo sapiens
HeLa = assay: Cancer activity screen (MTT cell survival), HeLa; assay type: cell-based; settings: Homo sapiens
MDA-MB-231 = assay: Cancer activity screen (MTT cell survival), MDA-MB-231; assay type: cell-based; settings: Homo sapiens
MDA-MB-231 cells = assay: Combination cell viability by MTT, MDA-MB-231; assay type: cell-based; settings: for combination index CI50 / combination index CI75 / combination index CI90 / combination index CI95: 24 hrs
Procedure: To further test if an Hsp70 inhibitor would have synergistic activity with inhibitors of Hsp90 and the proteasome, MDA-MB-231 cells were treated for 24 hrs with combinations of an HSP70 inhibitor and an HSP90 inhibitor and measured cell viability by MTT assays. […] JG98 was also synergistic at ratios of JG98:17DMAG of 1:1 and at ratios of JG98:bortezomib at 100:1.

MEF (C57BL/6) = assay: Cell survival, MEF; assay type: cell-based; settings: Mus musculus; read-out: IC50/μM MEF (C57BL/6)
[3] = in vivo; cited from earlier work
[4] = system: MCF-7, MCF-10A and MB-MDA-231 cells; assay: MTT assays, three cell lines; assay type: cell-based; settings: range over MCF-7, MCF-10A and MB-MDA-231 cells
Procedure: YM-08 was tested whether it might retain the anti-cancer activity of MKT-077.

[5] = Phase I, anti-cancer agent; cited from earlier work
[6] = Initial pharmacokinetics and biodistribution in CD1 mice; assay type: in vivo, mouse; settings: i.v., YM-01 20 mg/kg saline, YM-08 10 mg/kg 10% DMSO/saline
Procedure: (A) Initial pharmacokinetics and biodistribution of YM-01 and YM-08. Compounds were suspended in buffered saline (YM-01) or 10% DMSO/saline (YM-08) and injected at 20 and 10 mg/kg, respectively. YM-08 was not soluble in saline or 10% DMSO/saline at 20 mg/kg. The levels of YM-08 in the brain at 1 hr after injection could not be accurately determined because its value was outside the calibration curve. […] Results are average from data acquired from three female mice. (C) YM-08 maintains a B/P ratio of nearly 0.25 for 18 hrs.
The initial pharmacokinetics (PK) of YM-01 and YM-08 were tested in CD1 mice. […] After a single 6.6 mg/kg dose delivered i.v., the peak brain concentration of YM-08 was 4 μg/g (FIG. 7B) and the ratio in the brain:plasma (B/P) ratio was approximately 0.25 for 18 hrs (FIG. 7C). […] It is not yet clear how much tau levels need to be reduced to achieve therapeutic effects in disease models, but the area-under-the-curve (AUCinf) for YM-08 in the brain was 0.26 μg·hr/g and the AUCinf in plasma was 13.6 μg·hr/mL.

[7] = Liver microsome stability; assay type: in vitro ADME; settings: human liver microsomes
[8] = read-out: IC50, inhibition of biotinylated MKT-077 binding to immobilized Hsc70, competitive ELISA, biotin labeled MKT-077 1 μM
[9] = competitive ELISA, biotin labeled MKT-077 1 μM

Sequence of prokaryotic Hsp70 (DnaK) binding to denatured luciferase (P0A6Y8 whole entry): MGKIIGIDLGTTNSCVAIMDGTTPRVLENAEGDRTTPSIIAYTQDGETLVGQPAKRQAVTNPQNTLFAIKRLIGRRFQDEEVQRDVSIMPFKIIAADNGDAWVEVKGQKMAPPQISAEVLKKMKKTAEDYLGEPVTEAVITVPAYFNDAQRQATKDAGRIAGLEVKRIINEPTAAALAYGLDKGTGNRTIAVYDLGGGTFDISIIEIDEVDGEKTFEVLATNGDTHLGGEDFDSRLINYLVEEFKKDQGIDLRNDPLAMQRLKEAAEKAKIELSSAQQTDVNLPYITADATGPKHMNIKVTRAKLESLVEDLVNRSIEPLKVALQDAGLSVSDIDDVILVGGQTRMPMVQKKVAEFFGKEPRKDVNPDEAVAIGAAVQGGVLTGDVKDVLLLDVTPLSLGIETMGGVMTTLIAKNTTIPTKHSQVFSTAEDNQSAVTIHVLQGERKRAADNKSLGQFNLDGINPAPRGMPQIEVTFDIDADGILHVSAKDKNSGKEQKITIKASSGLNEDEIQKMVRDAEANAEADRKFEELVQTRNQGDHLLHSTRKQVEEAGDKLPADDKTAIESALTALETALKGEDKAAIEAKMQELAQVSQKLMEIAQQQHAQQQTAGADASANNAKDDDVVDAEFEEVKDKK
T1 sequence (P11142 whole entry): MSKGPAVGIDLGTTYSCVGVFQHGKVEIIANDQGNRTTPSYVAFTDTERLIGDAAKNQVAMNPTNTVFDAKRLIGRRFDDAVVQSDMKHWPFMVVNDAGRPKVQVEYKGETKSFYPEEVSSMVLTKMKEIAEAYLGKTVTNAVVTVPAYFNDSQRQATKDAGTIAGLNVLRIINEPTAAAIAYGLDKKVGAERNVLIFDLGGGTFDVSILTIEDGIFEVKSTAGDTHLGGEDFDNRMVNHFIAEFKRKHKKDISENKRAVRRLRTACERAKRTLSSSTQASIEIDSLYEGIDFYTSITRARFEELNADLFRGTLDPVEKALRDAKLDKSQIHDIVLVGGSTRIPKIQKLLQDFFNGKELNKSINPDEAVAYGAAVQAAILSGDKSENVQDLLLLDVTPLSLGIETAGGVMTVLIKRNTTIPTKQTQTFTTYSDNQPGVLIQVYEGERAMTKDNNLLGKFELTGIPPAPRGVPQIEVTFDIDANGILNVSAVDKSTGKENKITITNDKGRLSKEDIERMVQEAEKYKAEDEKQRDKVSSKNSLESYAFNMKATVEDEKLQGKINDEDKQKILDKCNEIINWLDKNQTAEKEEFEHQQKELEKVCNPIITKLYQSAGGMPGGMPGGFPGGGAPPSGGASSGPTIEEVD

(E)-3-ethyl-5-(3-methylbenzo[d]thiazol-2(3H)-ylidene)-2-(methylthio)-4-oxo-4,5-dihydrothiazol-3-ium [YM-03]
activity in luciferase binding assay [1]: reduced activity

(Z)-2-((3-ethyl-4-oxothiazolidin-2-ylidene)methyl)-1-methylpyridin-1-ium [YM-04]
activity in luciferase binding assay [1]: reduced activity
affinity fold worse than YM-07 (human Hsc70 (HSPA8); ratio of ELISA IC50): about 2 fold
IC50 (human Hsc70 (HSPA8); [8]): ~15000 nM

CCn1c(=O)/c(=C2\Sc3cccc(F)c3N2C)s/c1=C\c1scc[n+]1Cc1ccccc1 [JG-83]
IC50 in combination versus Hsp70 inhibitor alone (MCF7 cells): decreased IC50 concentrations

CCN1C(=O)/C(=C2\Sc3ccccc3N2C)SC1=S [YM-02, (E)-3-ethyl-5-(3-methylbenzo[d]thiazol-2(3H)-ylidene)-2-thioxothiazolidin-4-one]
activity in luciferase binding assay [1]: reduced activity; also recorded: some residual activity
IC50 (human Hsc70 (HSPA8); [9]): > 50000 nM
anti-cancer activity (MCF-7): residual activity
anti-tau activity in cells [2]: some residual activity

CN1/C(=c2\s/c(=C\c3cccc[n+]3Cc3ccccc3)n(Cc3ccccc3)c2=O)Sc2ccccc21
IC50 (MCF-10A): 1.34 ± 0.16 µM
IC50 (HeLa): 5.89 ± 0.87 µM
IC50 (MDA-MB-231): 1.8 ± 0.34 µM
IC50 (MCF-7): 2.15 ± 0.68 µM

CCn1c(=O)/c(=C2\Sc3cc(Cl)ccc3N2C)s/c1=C\c1scc[n+]1Cc1ccccc1.[Cl-] [JG-98]
synergy (MDA-MB-231 cells; JG98:17DMAG 1:1): synergistic
combination index CI50 (MDA-MB-231 cells; JG98:17DMAG (10:1)): 1.09
combination index CI75 (MDA-MB-231 cells; JG98:17DMAG (10:1)): 0.35
combination index CI90 (MDA-MB-231 cells; JG98:17DMAG (10:1)): 0.27
combination index CI95 (MDA-MB-231 cells; JG98:17DMAG (10:1)): 0.2
synergy (MDA-MB-231 cells; JG98:bortezomib 100:1): synergistic
combination index CI50 (MDA-MB-231 cells; JG98:bortezomib (1:1)): 0.05
combination index CI75 (MDA-MB-231 cells; JG98:bortezomib (1:1)): 0.05
combination index CI90 (MDA-MB-231 cells; JG98:bortezomib (1:1)): < 0.02
combination index CI95 (MDA-MB-231 cells; JG98:bortezomib (1:1)): < 0.02

CCn1c(=O)/c(=C2\Sc3cccc(Cl)c3N2C)s/c1=C\c1scc[n+]1Cc1ccccc1 [JG-84]
IC50 in combination versus Hsp70 inhibitor alone (MCF7 cells): decreased IC50 concentrations

CCn1c(=O)/c(=C2\Sc3c(ccc(F)c3F)N2C)s/c1=C\c1cccc[n+]1Cc1ccccc1
IC50 (MCF-10A): 1.36 ± 0.16 µM
IC50 (HeLa): 6 ± 0.64 µM
IC50 (MDA-MB-231): 2.64 ± 0.35 µM
IC50 (MCF-7): 2.1 ± 0.43 µM

CCn1c(=O)/c(=C2\Sc3cccc(Cl)c3N2C)s/c1=C\c1scc[n+]1Cc1ccccc1 [drawing 57]
IC50 (MEF (C57BL/6)): 6.96 ± 0.63 µM
IC50 (MCF-10A): 1.14 ± 0.15 µM
IC50 (HeLa): 1.87 ± 0.23 µM
IC50 (MDA-MB-231): 0.41 ± 0.02 µM
IC50 (MCF-7): 0.83 ± 0.19 µM

CCn1c(=O)/c(=C2\Sc3ccccc3N2C)s/c1=C\c1cccc[n+]1CC [MKT-077, 1-ethyl-2-((Z)-((E)-3-ethyl-5-(3-methylbenzo[d]thiazol-2(3H)-ylidene)-4-oxothiazolidin-2-ylidene)methyl)pyridin-1-ium]
enhancement of DnaK binding to denatured luciferase [1]: about 30%
BBB crossing [3]: does not cross the BBB
kidney accumulation [3]: dramatic accumulation of MKT-077 in the kidney
IC50 (human Hsc70 (HSPA8)): 6400 ± 230 nM
EC50 [4]: 1400 to 3000 nM
clinical toxicity [5]: nephrotoxicity in a subset of patients
reduction of tau levels ([2]; 30 μM): > 80%

CCn1c(=O)/c(=C2\Sc3c(cccc3C(F)(F)F)N2C)s/c1=C\c1cccc[n+]1Cc1ccc(F)c(F)c1
IC50 (MCF-10A): 4.77 ± 0.48 µM
IC50 (HeLa): 8.47 ± 0.89 µM
IC50 (MDA-MB-231): 6.16 ± 1.33 µM
IC50 (MCF-7): 5.35 ± 1.54 µM

CCn1c(=O)/c(=C2\Sc3ccccc3N2C)s/c1=C\c1cccc[n+]1Cc1ccccc1
IC50 (MEF (C57BL/6)): 14.6 ± 1.17 µM
IC50 (MCF-10A): 1.46 ± 0.15 µM
IC50 (HeLa): 3.29 ± 0.36 µM
IC50 (MDA-MB-231): 1.02 ± 0.2 µM
IC50 (MCF-7): 1.49 ± 0.22 µM

CCn1c(=O)/c(=C2\Sc3ccccc3N2C)s/c1=C\c1ccc(F)c[n+]1C
IC50 (MCF-10A): 5.34 ± 0.26 µM
IC50 (HeLa): 15 ± 0.98 µM
IC50 (MDA-MB-231): 7.82 ± 0.78 µM
IC50 (MCF-7): > 30 µM

CCn1c(=O)/c(=C2\Sc3cccc(Cl)c3N2C)s/c1=C\c1cccc[n+]1Cc1ccccc1
IC50 (MEF (C57BL/6)): 6.46 ± 0.7 µM
IC50 (MCF-10A): 0.61 ± 0.09 µM
IC50 (HeLa): 3.7 ± 0.35 µM
IC50 (MDA-MB-231): 0.72 ± 0.18 µM
IC50 (MCF-7): 1.37 ± 0.27 µM

CCN1C(=O)CS/C1=C\c1ccccn1 [YM-07, (Z)-3-ethyl-2-(pyridin-2-ylmethylene)thiazolidin-4-one]
activity in luciferase binding assay [1]: reduced activity
IC50 (human Hsc70 (HSPA8); [9]): ~5800 nM
affinity fold worse than YM-08 (human Hsc70 (HSPA8); ratio of ELISA IC50): about 10 fold
anti-cancer activity (MCF-7): residual activity

CCn1c(=O)/c(=C2\Sc3c(cccc3C(F)(F)F)N2C)s/c1=C\c1cccc[n+]1Cc1ccccc1
IC50 (MCF-10A): 2.45 ± 0.26 µM
IC50 (HeLa): 21.1 ± 3.96 µM
IC50 (MDA-MB-231): 3.46 ± 0.39 µM
IC50 (MCF-7): 2.31 ± 0.43 µM

CCn1c(=O)/c(=C2\Sc3cccc(F)c3N2C)s/c1=C\c1scc[n+]1Cc1ccccc1 [drawing 56]
IC50 (MEF (C57BL/6)): 8.29 ± 0.66 µM
IC50 (MCF-10A): 1.07 ± 0.05 µM
IC50 (HeLa): 2.23 ± 0.28 µM
IC50 (MDA-MB-231): 0.4 ± 0.03 µM
IC50 (MCF-7): 0.96 ± 0.2 µM

CCn1c(=O)/c(=C2\Sc3ccccc3N2C)s/c1=C\c1cccc[n+]1C [YM-01, 2-((Z)-((E)-3-ethyl-5-(3-methylbenzo[d]thiazol-2(3H)-ylidene)-4-oxothiazolidin-2-ylidene)methyl)-1-methylpyridin-1-ium]
enhancement of DnaK binding to denatured luciferase [1]: about 30%
kidney distribution ([6]; 0.16 and 1 hrs): prevalent in the kidney
brain penetration ([6]; 0.16 hrs): lacked detectable brain penetration
t1/2 [7]: approximately 4 minutes
IC50 (human Hsc70 (HSPA8); [8]): 3200 ± 230 nM
